# Test results reported in paper PMC6120666 (The EMBO Journal, 2018).
# Experiments:
# Assay in all cases: Drug affinity chromatography with c-ponatinib and LC-MS/MS (ponatinib interactome)
# Format in all cases: binding
# [1] = target: T1, proteins of U2OS cell lysate (Homo sapiens, UniProt O43707); conditions: ACTN4, Alpha-actinin-4
# T1 construct: Proteins enriched by c-ponatinib from U2OS cell lysate; endogenous in cells; host or cells: U2OS cell lysate
# In short: (§1)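 Proteins were identified by nano-UPLC–MS/MS after elution with formic acid and trypsin digestion. They were captured from U2OS lysate (2 mg protein per pulldown, NP-40 buffer) on amine-coupled NHS beads during a 2 h incubation at 4 °C.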
# [2] = target: T2, proteins of U2OS cell lysate (Homo sapiens, UniProt O76071); conditions: CIAO1, Probable cytosolic iron-sulfur protein assembly protein CIAO1
# T2 construct: Proteins enriched by c-ponatinib from U2OS cell lysate; endogenous in cells; host or cells: U2OS cell lysate
# In short: as §1
# [3] = target: T3, proteins of U2OS cell lysate (Homo sapiens, UniProt P02545); conditions: LMNA, Prelamin-A/C;Lamin-A/C
# T3 construct: Proteins enriched by c-ponatinib from U2OS cell lysate; endogenous in cells; host or cells: U2OS cell lysate
# In short: as §1
# [4] = target: T4, proteins of U2OS cell lysate (Homo sapiens, UniProt P09382); conditions: LGALS1, Galectin-1
# T4 construct: Proteins enriched by c-ponatinib from U2OS cell lysate; endogenous in cells; host or cells: U2OS cell lysate
# In short: as §1
# [5] = target: T5, proteins of U2OS cell lysate (Homo sapiens, UniProt P23284); conditions: PPIB, Peptidyl-prolyl cis-trans isomerase B
# T5 construct: Proteins enriched by c-ponatinib from U2OS cell lysate; endogenous in cells; host or cells: U2OS cell lysate
# In short: as §1
# [6] = target: T6, proteins of U2OS cell lysate (Homo sapiens, UniProt P23528); conditions: CFL1, Cofilin-1
# T6 construct: Proteins enriched by c-ponatinib from U2OS cell lysate; endogenous in cells; host or cells: U2OS cell lysate
# In short: as §1
# [7] = target: T7, proteins of U2OS cell lysate (Homo sapiens, UniProt P35232); conditions: PHB, Prohibitin
# T7 construct: Proteins enriched by c-ponatinib from U2OS cell lysate; endogenous in cells; host or cells: U2OS cell lysate
# In short: as §1
# [8] = target: T8, proteins of U2OS cell lysate (Homo sapiens, UniProt P47914); conditions: RPL29, 60S ribosomal protein L29
# T8 construct: Proteins enriched by c-ponatinib from U2OS cell lysate; endogenous in cells; host or cells: U2OS cell lysate
# In short: as §1
# [9] = target: T9, proteins of U2OS cell lysate (Homo sapiens, UniProt P51610); conditions: HCFC1, Host cell factor 1
# T9 construct: Proteins enriched by c-ponatinib from U2OS cell lysate; endogenous in cells; host or cells: U2OS cell lysate
# In short: as §1
# [10] = target: T10, proteins of U2OS cell lysate (Homo sapiens, UniProt P54753); conditions: EPHB3, Ephrin type-B receptor 3
# T10 construct: Proteins enriched by c-ponatinib from U2OS cell lysate; endogenous in cells; host or cells: U2OS cell lysate
# In short: as §1
# [11] = target: T11, proteins of U2OS cell lysate (Homo sapiens, UniProt P61981); conditions: YWHAG, 14-3-3 protein gamma
# T11 construct: Proteins enriched by c-ponatinib from U2OS cell lysate; endogenous in cells; host or cells: U2OS cell lysate
# In short: as §1
# [12] = target: T12, proteins of U2OS cell lysate (Homo sapiens, UniProt P62191); conditions: PSMC1, 26S protease regulatory subunit 4
# T12 construct: Proteins enriched by c-ponatinib from U2OS cell lysate; endogenous in cells; host or cells: U2OS cell lysate
# In short: as §1
# [13] = target: T13, proteins of U2OS cell lysate (Homo sapiens, UniProt P62258); conditions: YWHAE, 14-3-3 protein epsilon
# T13 construct: Proteins enriched by c-ponatinib from U2OS cell lysate; endogenous in cells; host or cells: U2OS cell lysate
# In short: as §1
# [14] = target: T14, proteins of U2OS cell lysate (Homo sapiens, UniProt P62906); conditions: RPL10A, 60S ribosomal protein L10a
# T14 construct: Proteins enriched by c-ponatinib from U2OS cell lysate; endogenous in cells; host or cells: U2OS cell lysate
# In short: as §1
# [15] = target: T15, proteins of U2OS cell lysate (Homo sapiens, UniProt P68371); conditions: TUBB4B;TUBB8, Tubulin beta-4B chain
# T15 construct: Proteins enriched by c-ponatinib from U2OS cell lysate; endogenous in cells; host or cells: U2OS cell lysate
# In short: as §1
# [16] = target: T16, proteins of U2OS cell lysate (Homo sapiens, UniProt Q00325); conditions: SLC25A3, Phosphate carrier protein, mitochondrial
# T16 construct: Proteins enriched by c-ponatinib from U2OS cell lysate; endogenous in cells; host or cells: U2OS cell lysate
# In short: as §1
# [17] = target: T17, proteins of U2OS cell lysate (Homo sapiens, UniProt Q14498); conditions: RBM39, RNA-binding protein 39
# T17 construct: Proteins enriched by c-ponatinib from U2OS cell lysate; endogenous in cells; host or cells: U2OS cell lysate
# In short: as §1
# [18] = target: T18, proteins of U2OS cell lysate (Homo sapiens, UniProt Q92616); conditions: GCN1L1, Translational activator GCN1
# T18 construct: Proteins enriched by c-ponatinib from U2OS cell lysate; endogenous in cells; host or cells: U2OS cell lysate
# In short: as §1
# [19] = target: T19, proteins of U2OS cell lysate (Homo sapiens, UniProt P20674); conditions: captured protein COX5A, Rank 122
# T19 construct: Proteins enriched by c-ponatinib from U2OS cell lysate; endogenous in cells; host or cells: U2OS cell lysate
# In short: as §1
# T6 sequence (P23528 whole entry): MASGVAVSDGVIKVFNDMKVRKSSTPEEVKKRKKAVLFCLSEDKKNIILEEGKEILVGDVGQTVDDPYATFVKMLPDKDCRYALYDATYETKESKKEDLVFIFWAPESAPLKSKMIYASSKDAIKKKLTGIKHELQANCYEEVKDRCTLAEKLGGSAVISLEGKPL
# T13 sequence (P62258 whole entry): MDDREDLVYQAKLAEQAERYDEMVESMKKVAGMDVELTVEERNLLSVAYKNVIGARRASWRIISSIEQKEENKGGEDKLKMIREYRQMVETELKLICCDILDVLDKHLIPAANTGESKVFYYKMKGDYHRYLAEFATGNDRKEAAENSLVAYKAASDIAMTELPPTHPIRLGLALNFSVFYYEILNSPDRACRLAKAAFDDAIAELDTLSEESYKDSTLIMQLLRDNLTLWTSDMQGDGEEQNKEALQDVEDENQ
# T11 sequence (P61981 whole entry): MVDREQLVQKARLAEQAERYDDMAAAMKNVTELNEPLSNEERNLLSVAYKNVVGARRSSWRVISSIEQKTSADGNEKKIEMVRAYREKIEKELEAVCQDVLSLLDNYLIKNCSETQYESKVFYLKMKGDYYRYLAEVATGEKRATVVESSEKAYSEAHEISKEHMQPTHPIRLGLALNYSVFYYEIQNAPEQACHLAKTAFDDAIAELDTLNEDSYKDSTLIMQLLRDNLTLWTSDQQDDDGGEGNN
# T16 sequence (Q00325 50-362): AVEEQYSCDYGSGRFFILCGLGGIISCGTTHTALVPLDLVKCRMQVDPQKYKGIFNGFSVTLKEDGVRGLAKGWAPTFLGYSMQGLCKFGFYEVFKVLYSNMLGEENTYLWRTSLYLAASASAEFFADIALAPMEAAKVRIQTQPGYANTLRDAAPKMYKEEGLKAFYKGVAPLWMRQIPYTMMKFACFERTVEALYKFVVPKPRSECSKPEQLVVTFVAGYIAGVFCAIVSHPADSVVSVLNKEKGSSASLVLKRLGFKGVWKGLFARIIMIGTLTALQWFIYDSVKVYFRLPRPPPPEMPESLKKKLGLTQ
# T3 sequence (P02545 whole entry): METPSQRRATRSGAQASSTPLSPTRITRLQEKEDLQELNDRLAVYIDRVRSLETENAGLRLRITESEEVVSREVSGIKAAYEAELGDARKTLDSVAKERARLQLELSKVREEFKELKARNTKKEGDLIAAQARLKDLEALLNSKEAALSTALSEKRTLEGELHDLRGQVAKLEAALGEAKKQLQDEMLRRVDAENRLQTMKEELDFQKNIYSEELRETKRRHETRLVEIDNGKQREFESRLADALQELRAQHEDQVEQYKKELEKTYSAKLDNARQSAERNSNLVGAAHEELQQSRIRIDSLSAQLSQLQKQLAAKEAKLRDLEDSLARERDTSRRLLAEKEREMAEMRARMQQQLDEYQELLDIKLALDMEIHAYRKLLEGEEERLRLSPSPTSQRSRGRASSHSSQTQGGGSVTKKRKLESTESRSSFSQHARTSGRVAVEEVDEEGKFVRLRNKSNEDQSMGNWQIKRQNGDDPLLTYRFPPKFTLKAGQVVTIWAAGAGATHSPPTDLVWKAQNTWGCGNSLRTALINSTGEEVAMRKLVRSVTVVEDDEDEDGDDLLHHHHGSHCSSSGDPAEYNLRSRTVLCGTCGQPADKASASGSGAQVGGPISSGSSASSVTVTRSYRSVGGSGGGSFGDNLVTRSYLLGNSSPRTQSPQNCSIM
# T18 sequence (Q92616 whole entry): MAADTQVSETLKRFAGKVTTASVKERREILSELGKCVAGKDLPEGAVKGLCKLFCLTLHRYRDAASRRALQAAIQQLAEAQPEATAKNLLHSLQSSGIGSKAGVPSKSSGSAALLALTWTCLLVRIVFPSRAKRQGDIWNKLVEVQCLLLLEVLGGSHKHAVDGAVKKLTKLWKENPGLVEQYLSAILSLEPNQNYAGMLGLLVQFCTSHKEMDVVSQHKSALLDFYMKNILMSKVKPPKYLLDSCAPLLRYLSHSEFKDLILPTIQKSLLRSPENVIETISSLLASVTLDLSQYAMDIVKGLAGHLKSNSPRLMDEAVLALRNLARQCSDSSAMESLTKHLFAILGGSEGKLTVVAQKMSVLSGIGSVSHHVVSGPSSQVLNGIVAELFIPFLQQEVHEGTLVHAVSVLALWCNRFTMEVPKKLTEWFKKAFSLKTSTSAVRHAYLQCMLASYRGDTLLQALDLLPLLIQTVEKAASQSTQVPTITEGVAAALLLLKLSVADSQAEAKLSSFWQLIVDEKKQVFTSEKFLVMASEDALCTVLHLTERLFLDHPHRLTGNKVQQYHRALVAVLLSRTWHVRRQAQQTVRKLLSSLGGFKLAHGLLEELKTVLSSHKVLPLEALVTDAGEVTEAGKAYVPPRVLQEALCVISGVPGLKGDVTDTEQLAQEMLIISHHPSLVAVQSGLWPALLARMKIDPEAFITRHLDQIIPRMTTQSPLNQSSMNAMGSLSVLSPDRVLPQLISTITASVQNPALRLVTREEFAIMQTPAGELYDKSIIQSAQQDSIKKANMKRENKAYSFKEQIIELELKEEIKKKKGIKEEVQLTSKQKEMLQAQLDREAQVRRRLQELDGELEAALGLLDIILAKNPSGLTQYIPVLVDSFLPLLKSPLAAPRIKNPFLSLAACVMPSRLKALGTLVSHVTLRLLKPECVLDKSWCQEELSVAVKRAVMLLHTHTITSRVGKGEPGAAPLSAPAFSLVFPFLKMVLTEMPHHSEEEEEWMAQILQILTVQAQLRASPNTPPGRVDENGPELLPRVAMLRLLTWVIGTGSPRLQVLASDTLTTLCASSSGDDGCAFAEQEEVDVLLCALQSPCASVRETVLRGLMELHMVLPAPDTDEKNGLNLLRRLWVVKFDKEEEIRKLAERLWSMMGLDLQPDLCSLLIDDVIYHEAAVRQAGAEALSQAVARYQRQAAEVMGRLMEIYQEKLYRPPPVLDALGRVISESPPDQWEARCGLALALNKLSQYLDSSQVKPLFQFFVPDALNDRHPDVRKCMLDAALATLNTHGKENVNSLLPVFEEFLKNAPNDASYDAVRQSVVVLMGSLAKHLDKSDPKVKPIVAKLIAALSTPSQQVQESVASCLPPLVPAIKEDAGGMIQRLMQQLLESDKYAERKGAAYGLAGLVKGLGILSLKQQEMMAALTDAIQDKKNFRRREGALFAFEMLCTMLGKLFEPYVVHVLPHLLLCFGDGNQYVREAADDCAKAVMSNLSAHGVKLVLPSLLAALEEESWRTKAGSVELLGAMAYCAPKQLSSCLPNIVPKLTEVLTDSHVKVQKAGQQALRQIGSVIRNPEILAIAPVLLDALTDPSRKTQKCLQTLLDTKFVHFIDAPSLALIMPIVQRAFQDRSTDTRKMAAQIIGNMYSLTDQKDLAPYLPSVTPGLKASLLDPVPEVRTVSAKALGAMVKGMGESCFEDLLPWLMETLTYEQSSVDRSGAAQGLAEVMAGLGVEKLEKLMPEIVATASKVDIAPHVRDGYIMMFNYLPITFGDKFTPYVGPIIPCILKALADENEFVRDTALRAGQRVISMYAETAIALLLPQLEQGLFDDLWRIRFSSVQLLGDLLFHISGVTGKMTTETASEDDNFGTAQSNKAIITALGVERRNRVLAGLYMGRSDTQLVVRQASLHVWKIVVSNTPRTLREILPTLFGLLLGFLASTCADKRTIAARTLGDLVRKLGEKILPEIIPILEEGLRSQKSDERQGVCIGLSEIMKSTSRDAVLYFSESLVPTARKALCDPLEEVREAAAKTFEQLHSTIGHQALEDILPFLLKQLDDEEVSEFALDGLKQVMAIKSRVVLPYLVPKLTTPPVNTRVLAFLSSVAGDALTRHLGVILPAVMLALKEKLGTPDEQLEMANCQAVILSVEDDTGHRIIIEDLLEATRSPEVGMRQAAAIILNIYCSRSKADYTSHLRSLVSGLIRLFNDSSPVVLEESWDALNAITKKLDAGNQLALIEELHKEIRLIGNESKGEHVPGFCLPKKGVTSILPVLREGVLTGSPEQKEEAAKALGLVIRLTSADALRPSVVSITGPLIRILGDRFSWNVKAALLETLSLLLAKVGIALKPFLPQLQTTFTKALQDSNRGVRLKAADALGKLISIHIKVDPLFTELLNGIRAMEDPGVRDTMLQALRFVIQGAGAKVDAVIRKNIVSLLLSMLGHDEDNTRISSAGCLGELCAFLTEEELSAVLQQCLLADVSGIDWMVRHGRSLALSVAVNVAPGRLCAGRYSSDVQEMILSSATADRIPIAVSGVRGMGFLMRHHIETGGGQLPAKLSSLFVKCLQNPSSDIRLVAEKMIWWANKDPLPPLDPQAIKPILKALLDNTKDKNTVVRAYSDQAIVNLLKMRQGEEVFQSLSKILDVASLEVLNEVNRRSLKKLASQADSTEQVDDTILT
# T5 sequence (P23284 34-216): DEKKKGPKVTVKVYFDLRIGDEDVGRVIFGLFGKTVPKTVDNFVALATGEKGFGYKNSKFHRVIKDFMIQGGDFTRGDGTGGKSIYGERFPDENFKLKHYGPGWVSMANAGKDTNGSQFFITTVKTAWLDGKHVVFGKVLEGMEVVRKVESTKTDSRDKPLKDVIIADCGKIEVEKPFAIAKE
# T15 sequence (P68371 whole entry): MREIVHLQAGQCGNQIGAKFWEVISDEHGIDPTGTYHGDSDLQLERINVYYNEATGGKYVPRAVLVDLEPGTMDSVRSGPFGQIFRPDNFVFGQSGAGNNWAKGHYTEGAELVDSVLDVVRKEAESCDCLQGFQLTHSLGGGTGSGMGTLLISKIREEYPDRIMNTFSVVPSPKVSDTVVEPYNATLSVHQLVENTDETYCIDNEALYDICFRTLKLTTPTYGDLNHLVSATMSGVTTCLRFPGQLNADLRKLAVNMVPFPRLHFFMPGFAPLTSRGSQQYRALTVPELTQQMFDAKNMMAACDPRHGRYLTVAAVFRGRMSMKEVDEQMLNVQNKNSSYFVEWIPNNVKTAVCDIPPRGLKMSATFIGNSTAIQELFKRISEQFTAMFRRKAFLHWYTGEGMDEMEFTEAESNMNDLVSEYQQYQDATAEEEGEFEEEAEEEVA
structure (smiles),measurement,setting,value
Cc1ccc(C(=O)Nc2ccc(CN3CCN(C)CC3)c(C(F)(F)F)c2)cc1C#Cc1cnc2cccnn12 [PON],Average LFQ PON_WT,[1],19.9578
same,Average LFQ PON_WT,[2],21.1391
same,Average LFQ PON_WT,[3],23.7594
same,Average LFQ PON_WT,[4],23.8412
same,Average LFQ PON_WT,[5],20.4971
same,Average LFQ PON_WT,[6],19.4794
same,Average LFQ PON_WT,[7],29.1615
same,Average LFQ PON_WT,[8],19.934
same,Average LFQ PON_WT,[9],21.0295
same,Average LFQ PON_WT,[10],21.3076
same,Average LFQ PON_WT,[11],23.8341
same,Average LFQ PON_WT,[12],23.3461
same,Average LFQ PON_WT,[13],21.3893
same,Average LFQ PON_WT,[14],19.7018
same,Average LFQ PON_WT,[15],26.1041
same,Average LFQ PON_WT,[16],23.3948
same,Average LFQ PON_WT,[17],20.4989
same,Average LFQ PON_WT,[18],23.5357
"Cc1ccc(C(=O)Nc2ccc(CN3CCN(CCCN)CC3)c(C(F)(F)F)c2)cc1C#Cc1cnc2cccnn12 [c-ponatinib, reference compound]",Average LFQ intensity,[19],23.049
